One may read the IC50 as the concentration at which inhibition is half-maximal. Low readings indicate greater potency in that assay, high ones weaker potency in that assay.

The structures appear in SMILES notation. The source made the active and inactive calls. No cut-off for these calls is given here.

One assay deals with T1, Endothelin-1 receptor (Homo sapiens, UniProt P25101).
T1 sequence (P25101 whole entry): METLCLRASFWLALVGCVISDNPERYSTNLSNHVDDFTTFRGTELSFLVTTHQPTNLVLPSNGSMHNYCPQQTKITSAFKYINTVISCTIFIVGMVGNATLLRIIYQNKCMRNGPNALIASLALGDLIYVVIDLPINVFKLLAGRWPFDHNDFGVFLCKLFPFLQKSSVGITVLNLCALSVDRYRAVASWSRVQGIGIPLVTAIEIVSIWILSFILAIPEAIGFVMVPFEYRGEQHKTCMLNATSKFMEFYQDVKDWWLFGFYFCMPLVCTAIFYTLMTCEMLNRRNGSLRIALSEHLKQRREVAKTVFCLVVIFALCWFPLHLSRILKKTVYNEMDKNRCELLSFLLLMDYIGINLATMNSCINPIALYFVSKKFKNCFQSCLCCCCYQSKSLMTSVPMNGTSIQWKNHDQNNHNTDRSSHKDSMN
As to the kind of experiment: Displacement of 125I-labeled endothelin 1 from human ETA receptor expressed in CHO-K1 cells incubated for 4 hrs by gamma counting analysis. The format is cell-based. (Loss of bound radioactivity is the signal in a displacement assay; it reports binding, not function.)

Assay [1] has as its target T2, Type-1 angiotensin II receptor (Homo sapiens, UniProt P30556).
T2 sequence (P30556 whole entry): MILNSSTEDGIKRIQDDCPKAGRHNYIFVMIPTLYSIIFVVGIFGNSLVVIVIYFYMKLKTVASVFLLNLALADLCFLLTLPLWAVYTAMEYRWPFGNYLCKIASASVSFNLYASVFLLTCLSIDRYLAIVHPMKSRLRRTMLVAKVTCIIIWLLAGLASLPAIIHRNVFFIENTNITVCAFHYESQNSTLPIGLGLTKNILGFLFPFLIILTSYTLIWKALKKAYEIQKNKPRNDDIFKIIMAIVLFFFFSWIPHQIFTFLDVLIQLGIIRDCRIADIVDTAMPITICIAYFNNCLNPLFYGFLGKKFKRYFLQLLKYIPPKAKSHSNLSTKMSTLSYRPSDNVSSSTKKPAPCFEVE
Nature of the assay: Displacement of 125I-labeled Sar1-Ile8-angiotensin II from human AT1 receptor incubated for 2 hrs by gamma counting analysis.

A further assay has as its system Rattus norvegicus. As to the kind of experiment: Antihypertensive activity in spontaneously hypertensive rat assessed as reduction in blood pressure at 20 mg/kg, po by tail plethysmographic analysis. The format is functional, organism-based.

In the case of `CCCc1nc2c(C)cc(C(=O)NC(C)(C)C)cc2n1Cc1ccc(-c2ccccc2S(=O)(=O)Nc2onc(C)c2C)cc1`, the IC50 on Endothelin-1 receptor was 140000 nM; in assay [1], 385 nM.

Consider `CCCCNC(=O)c1cc(C)c2nc(CCC)n(Cc3ccc(-c4ccccc4S(=O)(=O)Nc4onc(C)c4C)cc3)c2c1`, for which the IC50 on Endothelin-1 receptor was determined as 314 nM; in assay [1], 465 nM.

Consider `CCCc1cc(Cn2c(CC)nc3c(C)cc(C)nc32)ccc1OC(C(=O)NS(=O)(=O)c1ccc(C(C)C)cc1)c1ccc2c(c1)OCO2` (configuration not stated), for which the 50% inhibitory concentration (IC50) at Endothelin-1 receptor was found to be 24 nM; in assay [1], 13 nM.

As to `CCCc1nc2c(C)cc(C(=O)NCCc3ccc(OC)cc3)cc2n1Cc1ccc(-c2ccccc2S(=O)(=O)Nc2onc(C)c2C)cc1`, the values for the 50% inhibitory concentration (IC50) (on Endothelin-1 receptor; in assay [1]) were 200000 nM and 76 nM, respectively.

For `CCCc1nc2c(C)cc(C(=O)NCCc3cccc(OC)c3)cc2n1Cc1ccc(-c2ccccc2S(=O)(=O)Nc2onc(C)c2C)cc1`, the figures for the half-maximal inhibitory concentration (IC50) (on Endothelin-1 receptor; in assay [1]) were 24000 nM and 42 nM, respectively.

Take `CCCc1nc2c(C)cc(C(=O)NCCc3ccc(OC)c(OC)c3)cc2n1Cc1ccc(-c2ccccc2S(=O)(=O)Nc2onc(C)c2C)cc1`: the IC50 was 55000 nM at Endothelin-1 receptor and 92 nM in assay [1].

Take `CCCCc1nn(-c2ccccc2Cl)c(=O)n1Cc1ccc(-c2ccccc2S(=O)(=O)Nc2onc(C)c2C)cc1`: the IC50 at Endothelin-1 receptor was determined as 11 nM; in assay [1], 7 nM.

For `CCCc1nc2c(C)cc(C(=O)Nc3ccccc3OC)cc2n1Cc1ccc(-c2ccccc2S(=O)(=O)Nc2onc(C)c2C)cc1`, the concentration for half-maximal inhibition (IC50) on Endothelin-1 receptor amounted to 137 nM; in assay [1], 419 nM.

As for `CCCc1nc2c(C)cc(C(=O)NCCN3CCN(C)CC3)cc2n1Cc1ccc(-c2ccccc2S(=O)(=O)Nc2onc(C)c2C)cc1`, the IC50 on Endothelin-1 receptor is 1800 nM; in assay [1] it was 47 nM.

Take `CCCc1nc2c(C)cc(C(=O)NCCN3CCOCC3)cc2n1Cc1ccc(-c2ccccc2S(=O)(=O)Nc2onc(C)c2C)cc1`: the IC50 at Endothelin-1 receptor came to 1400 nM; in assay [1], 31 nM.

In the case of `CCCc1nc2c(C)cc(C(=O)NC(C)C)cc2n1Cc1ccc(-c2ccccc2S(=O)(=O)Nc2onc(C)c2C)cc1`, the IC50 at Endothelin-1 receptor came out at 277 nM; in assay [1], 341 nM.

As to `CCCCC1=NC2(CCCC2)C(=O)N1Cc1ccc(-c2ccccc2-c2nnn[nH]2)cc1`, the outcome in the assay with Rattus norvegicus was Active.

With `CCCc1nc2c(C)cc(C(=O)NCCc3ccccc3F)cc2n1Cc1ccc(-c2ccccc2S(=O)(=O)Nc2onc(C)c2C)cc1`, the results for the IC50 (at Endothelin-1 receptor; in assay [1]) were 262 nM and 160 nM, respectively.

Regarding `CCCc1nc2c(C)cc(C(=O)NCc3ccccc3OC)cc2n1Cc1ccc(-c2ccccc2S(=O)(=O)Nc2onc(C)c2C)cc1`, the IC50 at Endothelin-1 receptor was determined as 310 nM; in assay [1], 217 nM.

On to `CCCc1nc2c(C)cc(C(=O)NCCN3CCCCC3)cc2n1Cc1ccc(-c2ccccc2S(=O)(=O)Nc2onc(C)c2C)cc1`, for which the IC50 at Endothelin-1 receptor stood at 5800 nM; in assay [1], 94 nM.

With `CCCc1nc2c(C)cc(C(=O)NCc3ccc(OC)c(OC)c3)cc2n1Cc1ccc(-c2ccccc2S(=O)(=O)Nc2onc(C)c2C)cc1`, the 50% inhibitory concentration (IC50) is 28000 nM on Endothelin-1 receptor and 56 nM in assay [1].

In the case of `CCCc1nc2c(C)cc(C(=O)NCCc3cc(OC)ccc3OC)cc2n1Cc1ccc(-c2ccccc2S(=O)(=O)Nc2onc(C)c2C)cc1`, the IC50 on Endothelin-1 receptor was determined as 3000 nM; in assay [1], 37 nM.

Take `CCCc1nc2c(C)cc(C(=O)Nc3ccccc3)cc2n1Cc1ccc(-c2ccccc2S(=O)(=O)Nc2onc(C)c2C)cc1`: the IC50 stood at 27000 nM on Endothelin-1 receptor and 201 nM in assay [1].

As to `CCCc1nc2c(C)cc(C(=O)NCc3ccc(OC)cc3)cc2n1Cc1ccc(-c2ccccc2S(=O)(=O)Nc2onc(C)c2C)cc1`, the results for the IC50 (on Endothelin-1 receptor; in assay [1]) were 388 nM and 81 nM, respectively.

For the compound `CCCNC(=O)c1cc(C)c2nc(CCC)n(Cc3ccc(-c4ccccc4S(=O)(=O)Nc4onc(C)c4C)cc3)c2c1`, the IC50 at Endothelin-1 receptor turned out to be 35000 nM; in assay [1], 373 nM.

`CCCc1nc2c(C)cc(C(=O)NCc3ccccc3)cc2n1Cc1ccc(-c2ccccc2S(=O)(=O)Nc2onc(C)c2C)cc1`: the result with Rattus norvegicus was Active. Also, the 50% inhibitory concentration (IC50) at Endothelin-1 receptor is 10 nM; in assay [1], 28 nM.

For the compound `CCCc1nc2c(C)cc(C(=O)NCCN3CCCC3)cc2n1Cc1ccc(-c2ccccc2S(=O)(=O)Nc2onc(C)c2C)cc1`, the IC50 at Endothelin-1 receptor is 5500 nM; in assay [1] it was 95 nM.

With `CCCc1nc2c(C)cc(C(=O)NCCc3ccc(F)cc3)cc2n1Cc1ccc(-c2ccccc2S(=O)(=O)Nc2onc(C)c2C)cc1`, the figures for the concentration for half-maximal inhibition (IC50) (on Endothelin-1 receptor; in assay [1]) were 56000 nM and 152 nM, respectively.

As to `CCCc1nc2c(n1Cc1ccc(-c3ccccc3S(=O)(=O)Nc3onc(C)c3C)c(C#N)c1)C(=O)CCCC2`, the IC50 was 15 nM at Endothelin-1 receptor and 16 nM in assay [1].

Consider `CCCc1nc2c(C)cc(C(=O)NCCc3ccccc3)cc2n1Cc1ccc(-c2ccccc2S(=O)(=O)Nc2onc(C)c2C)cc1`, for which the IC50 at Endothelin-1 receptor came out at 956 nM; in assay [1] it was 8 nM.

As to `CCCc1nc2c(C)cc(C(=O)NCc3cccc(OC)c3)cc2n1Cc1ccc(-c2ccccc2S(=O)(=O)Nc2onc(C)c2C)cc1`, the figures for the 50% inhibitory concentration (IC50) (on Endothelin-1 receptor; in assay [1]) were 898 nM and 50 nM, respectively.

Source of the values: ChEMBL document CHEMBL3734700, “Design, synthesis and biological activity of 4-[(benzimidazol-1-yl)methyl]biphenyl-2-sulphonamides as dual angiotensin II and endothelin A receptor antagonists” (Medchemcomm, 2015).
